Laboratory results reported in US20090137572A1, “2-substituted-4-heteroaryl-pyrimidines useful for the treatment of proliferative disorders” (priority 2004, published 2009).

Columns and labels:
[1] = target: T1, Aurora A kinase (Homo sapiens, UniProt O14965); assay: Aurora-A (human) kinase assay (Kemptide substrate); assay type: biochemical; conditions: pIC50 is -log(IC50, M), 15 μM ATP; for IC50: read-out: Kinase Inhibition pIC50 Aurora A kinase (converted)
T1 construct: purchased
T1 sequence (O14965 1-403): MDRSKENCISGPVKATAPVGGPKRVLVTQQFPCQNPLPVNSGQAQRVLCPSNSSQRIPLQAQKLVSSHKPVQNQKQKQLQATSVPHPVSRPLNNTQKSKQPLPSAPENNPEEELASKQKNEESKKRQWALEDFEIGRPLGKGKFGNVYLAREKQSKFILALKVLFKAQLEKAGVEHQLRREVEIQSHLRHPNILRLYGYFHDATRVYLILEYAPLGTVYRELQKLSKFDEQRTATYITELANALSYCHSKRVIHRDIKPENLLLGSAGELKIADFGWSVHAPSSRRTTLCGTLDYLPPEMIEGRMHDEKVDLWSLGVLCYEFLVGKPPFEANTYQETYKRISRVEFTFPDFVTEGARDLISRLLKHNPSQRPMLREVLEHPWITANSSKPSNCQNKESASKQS
Experimental: Aurora-A (human) kinase assay. This was achieved by measurement of incorporation of radioactive phosphate from ATP into Kemptide substrate (LRRASLG), upon phosphorylation by commercially obtained aurora-A kinase. Assays were performed using 96-well plates and appropriate assay buffers (8 mM MOPS, 0.2 mM EDTA, pH 7.0), into which were added 5-10 ng of active enzyme with 200 μM substrate (Kemptide). The reactions were initiated by addition of Mg/ATP mix (10 mM MgAcetate+15 μM ATP with 30-50 kBq per well of [γ-^33P]-ATP) and mixtures incubated for 40 min at room temperature. Reactions were stopped by addition of 3% phosphoric acid, followed by filtration through p81 filterplates (Whatman Polyfiltronics, Kent, UK). After washing 5 times with 75 mM aq orthophosphoric acid and once in methanol, plates were dried, scintillant added and incorporated radioactivity measured in a scintillation counter (TopCount, Packard Instruments, Pangbourne, Berks, UK). Compounds for kinase assay were made up as 10 mM stocks in DMSO and diluted into 10% DMSO in assay buffer.

[2] = target: CDK2-cycline E (Homo sapiens, UniProt P24941); assay: Kinase assay (radioactive phosphate incorporation), CDK2-cyclin E; assay type: biochemical; conditions: read-out: Kinase Inhibition pIC50 CDK2-cycline E (converted)
Experimental: Kinase assays. The compounds of the invention above were investigated for their ability to inhibit the enzymatic activity of various protein kinases (Table 2). This was achieved by measurement of incorporation of radioactive phosphate from ATP into appropriate polypeptide substrates. Recombinant protein kinases and kinase complexes were produced or obtained commercially. Assays were performed using 96-well plates and appropriate assay buffers (typically 25 mM β-glycerophosphate, 20 mM MOPS, 5 mM EGTA, 1 mM DTT, 1 mM […], pH 7.4), into which were added 2-4 μg of active enzyme with appropriate substrates. The reactions were initiated by addition of Mg/ATP mix (15 mM MgCl2+100 μM ATP with 30-50 kBq per well of [γ-^32P]-ATP) and mixtures incubated as required at 30° C. Reactions were stopped on ice, followed by filtration through p81 filterplates or GF/C filterplates (Whatman Polyfiltronics, Kent, UK). After washing 3 times with 75 mM aq orthophosphoric acid, plates were dried, scintillant added and incorporated radioactivity measured in a scintillation counter (TopCount, Packard Instruments, Pangbourne, Berks, UK). Compounds for kinase assay were made up as 10 mM stocks in DMSO and diluted into 10% DMSO in assay buffer.

Row | Structure (SMILES) | IC50 [1] | IC50 [2] | Kinase Inhibition pIC50 Aurora A kinase [1]
1 | COCCNS(=O)(=O)c1ccc(Nc2nccc(-c3sc(C)nc3C)n2)cc1 [Compound 43, 4-[4-(2,4-Dimethyl-thiazol-5-yl)-pyrimidin-2-ylamino]-N-(2-methoxy-ethyl)-benzenesulfonamide] | 0.126 µM | 0.01 µM | –
2 | CCN(CC)S(=O)(=O)c1ccc(Nc2nccc(-c3sc(NC)nc3C)n2)cc1 [Compound 52, N,N-Diethyl-4-[4-(4-methyl-2-methylamino-thiazol-5-yl)-pyrimidin-2-ylamino]-benzenesulfonamide] | 0.1 µM | 1 µM | –
3 | CNc1nc(C)c(-c2ccnc(N)n2)s1 [Compound 85, 4-(4-Methyl-2-methylamino-thiazol-5-yl)-pyrimidin-2-ylamine] | 0.398 µM | – | –
4 | CCNc1nc(C)c(-c2ccnc(N)n2)s1 [Compound 86, 4-(2-Ethylamino-4-methyl-thiazol-5-yl)-pyrimidin-2-ylamine] | 1 µM | – | –
5 | CCN(C(C)=O)c1nc(C)c(-c2ccnc(N)n2)s1 [Compound 87, N-[5-(2-Amino-pyrimidin-4-yl)-4-methyl-thiazol-2-yl]-N-ethyl-acetamide] | 0.158 µM | – | –
6 | Cc1nc(N(C)C)sc1-c1ccnc(N)n1 [Compound 88, 4-(2-Dimethylamino-4-methyl-thiazol-5-yl)-pyrimidin-2-ylamine] | 1.58 µM | – | –
7 | CCc1cc(-c2nc(C)c(-c3ccnc(Nc4cccc(CNC(C)=O)c4)n3)s2)ccn1 [Compound 105, N-(3-{4-[2-(2-Ethyl-pyridin-4-yl)-4-methyl-thiazol-5-yl]-pyrimidin-2-ylamino}-benzyl)-acetamide] | 0.316 µM | – | –
8 | CCNc1nc(C)c(-c2ccnc(Nc3ccc(OC)cc3C)n2)s1 [Compound 111, [4-(2-Ethylamino-4-methyl-thiazol-5-yl)-pyrimidin-2-yl]-(4-methoxy-2-methyl-phenyl)-amine] | 3.16 µM | – | –
9 | COc1ccc(Nc2nccc(-c3sc(C)nc3C)n2)c(C)c1 [Compound 112, [4-(2,4-Dimethyl-thiazol-5-yl)-pyrimidin-2-yl]-(4-methoxy-2-methyl-phenyl)-amine] | 2.51 µM | – | –
10 | COc1ccc(C)c(Nc2nccc(-c3sc(C)nc3C)n2)c1 [Compound 113, [4-(2,4-Dimethyl-thiazol-5-yl)-pyrimidin-2-yl]-(5-methoxy-2-methyl-phenyl)-amine] | 5.01 µM | – | –
11 | Cc1nc(CO)sc1-c1ccnc(Nc2ccc(N(C)C)cc2)n1 [Compound 132, {5-[2-(4-Dimethylamino-phenylamino)-pyrimidin-4-yl]-4-methyl-thiazol-2-yl}-methanol] | 0.1 µM | 0.631 µM | –
12 | CCNc1nc(C)c(-c2ccnc(Nc3ccc(N4CCOCC4)c(Cl)c3)n2)s1 [Compound 134, (3-Chloro-4-morpholin-4-yl-phenyl)-[4-(2-ethylamino-4-methyl-thiazol-5-yl)-pyrimidin-2-yl]-amine] | 0.126 µM | 0.2 µM | –
13 | Cc1nc(C)c(-c2ccnc(Nc3ccc(N4CCOCC4)cc3C)n2)s1 [Compound 139, [4-(2,4-Dimethyl-thiazol-5-yl)-pyrimidin-2-yl]-(2-methyl-4-morpholin-4-yl-phenyl)-amine] | 1.58 µM | – | –
14 | Cc1ccc(-c2nc(C)c(-c3ccnc(Nc4ccc(N5CCOCC5)cc4)n3)s2)c(C)c1 [Compound 140, {4-[2-(2,4-Dimethyl-phenyl)-4-methyl-thiazol-5-yl]-pyrimidin-2-yl}-(4-morpholin-4-yl-phenyl)-amine] | 1.58 µM | – | –
15 | Cc1nc(C)c(-c2ccnc(Nc3ccc(N4CCOCC4)c(Cl)c3)n2)s1 [Compound 141, (3-Chloro-4-morpholin-4-yl-phenyl)-[4-(2,4-dimethyl-thiazol-5-yl)-pyrimidin-2-yl]-amine] | 0.158 µM | 0.794 µM | –
16 | Cc1nc(NC(C)(C)C)sc1-c1ccnc(Nc2ccc(N3CCOCC3)cc2)n1 [Compound 143, [4-(2-tert-Butylamino-4-methyl-thiazol-5-yl)-pyrimidin-2-yl]-(4-morpholin-4-yl-phenyl)-amine] | 0.0501 µM | 0.126 µM | –
17 | COCCNc1nc(C)c(-c2ccnc(Nc3ccc(N4CCOCC4)cc3)n2)s1 [Compound 144, {4-[2-(2-Methoxy-ethylamino)-4-methyl-thiazol-5-yl]-pyrimidin-2-yl}-(4-morpholin-4-yl-phenyl)-amine] | 0.1 µM | 0.251 µM | –
18 | CNc1nc(C)c(-c2ccnc(Nc3ccc(N4CCOCC4)cc3C)n2)s1 [Compound 145, [4-(4-Methyl-2-methylamino-thiazol-5-yl)-pyrimidin-2-yl]-(2-methyl-4-morpholin-4-yl-phenyl)-amine] | 3.98 µM | – | –
19 | CCNc1nc(C)c(-c2ccnc(Nc3ccc(N4CCOCC4)cc3C)n2)s1 [Compound 146, [4-(2-Ethylamino-4-methyl-thiazol-5-yl)-pyrimidin-2-yl]-(2-methyl-4-morpholin-4-yl-phenyl)-amine] | 2.51 µM | – | –
20 | Cc1nc(-c2ccc(N3CCOCC3)cc2)sc1-c1ccnc(Nc2ccc(N3CCOCC3)cc2)n1 [Compound 147, {4-[4-Methyl-2-(4-morpholin-4-yl-phenyl)-thiazol-5-yl]-pyrimidin-2-yl}-(4-morpholin-4-yl-phenyl)-amine] | 0.501 µM | – | –
21 | CNc1ccc(Nc2nccc(-c3sc(C)nc3C)n2)cc1C(F)(F)F [Compound 149, N^4-[4-(2,4-Dimethyl-thiazol-5-yl)-pyrimidin-2-yl]-N^1-methyl-2-trifluoromethyl-benzene-1,4-diamine] | 0.398 µM | 0.251 µM | –
22 | Cc1nc(N(C)c2cccnc2)sc1-c1ccnc(Nc2ccc(N3CCOCC3)cc2)n1 [Compound 153, {4-[4-Methyl-2-(methyl-pyridin-3-yl-amino)-thiazol-5-yl]-pyrimidin-2-yl}-(4-morpholin-4-yl-phenyl)-amine] | – | – | 6.1
23 | Cc1nc(-c2cccnc2)sc1-c1ccnc(Nc2ccc3c(c2)OCCO3)n1 [Compound 180, (2,3-Dihydro-benzo[1,4]dioxin-6-yl)-[4-(4-methyl-2-pyridin-3-yl-thiazol-5-yl)-pyrimidin-2-yl]-amine] | 1.58 µM | – | –
24 | CCNc1nc(C)c(-c2ccnc(Nc3ccc4c(c3)OCCO4)n2)s1 [Compound 181, (2,3-Dihydro-benzo[1,4]dioxin-6-yl)-[4-(2-ethylamino-4-methyl-thiazol-5-yl)-pyrimidin-2-yl]-amine] | 0.2 µM | 0.501 µM | –
25 | Cc1nc(NCCc2ccccc2)sc1-c1ccnc(Nc2ccc3c(c2)OCCO3)n1 [Compound 183, (2,3-Dihydro-benzo[1,4]dioxin-6-yl)-[4-(4-methyl-2-phenethylamino-thiazol-5-yl)-pyrimidin-2-yl]-amine] | 1.26 µM | – | –
26 | CNc1nc(C)c(-c2ccnc(Nc3ccc(OC)c(C)c3)n2)s1 [Compound 184, (4-Methoxy-3-methyl-phenyl)-[4-(4-methyl-2-methylamino-thiazol-5-yl)-pyrimidin-2-yl]-amine] | 0.0631 µM | 0.126 µM | –
27 | COc1ccc(Nc2nccc(-c3sc(-c4cccnc4)nc3C)n2)cc1C [Compound 186, (4-Methoxy-3-methyl-phenyl)-[4-(4-methyl-2-pyridin-3-yl-thiazol-5-yl)-pyrimidin-2-yl]-amine] | 0.501 µM | – | –
28 | Cc1cc(Nc2nccc(-c3sc(CO)nc3C)n2)ccc1N1CCCCC1 [Compound 209, {4-Methyl-5-[2-(3-methyl-4-piperidin-1-yl-phenylamino)-pyrimidin-4-yl]-thiazol-2-yl}-methanol] | 0.251 µM | – | –
29 | Cc1nc(C)c(-c2ccnc(Nc3ccc(N4CCOCC4)c(C(N)=O)c3)n2)s1 [Compound 210, 5-[4-(2,4-Dimethyl-thiazol-5-yl)-pyrimidin-2-ylamino]-2-morpholin-4-yl-benzamide] | 0.251 µM | – | –
30 | Cc1nc(C)c(-c2ccnc(Nc3ccc(C)c(N4CCOCC4)c3)n2)s1 [Compound 214, [4-(2,4-Dimethyl-thiazol-5-yl)-pyrimidin-2-yl]-(4-methyl-3-morpholin-4-yl-phenyl)-amine] | 0.251 µM | – | –
